Results reported in PubChem BioAssay AID1645868 (Buhrlage Lab, Dana-Farber Cancer Institute and Novartis …, 2021).
Activity calls are given as the source filed them.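 How the source made its calls: active means maximal percent inhibition of the deubiquitinase OTUD3 of at least 30% across the tested doses; inactive means the rest.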

Biological target: OTU domain-containing protein 3 (Homo sapiens) (UniProt Q5T2D3)
Experiment: Validation of screening hits, potency titration, in vitro enzymatic, OTU domain-containing protein 3 DUB inhibitors (AID 1645868)
Conditions: purified OTUD3, ubiquitin-rhodamine cleavage fluorescence, 2 h

Sequence of OTU domain-containing protein 3 (Homo sapiens) (Q5T2D3 whole entry, looked up, the tested form may be a part): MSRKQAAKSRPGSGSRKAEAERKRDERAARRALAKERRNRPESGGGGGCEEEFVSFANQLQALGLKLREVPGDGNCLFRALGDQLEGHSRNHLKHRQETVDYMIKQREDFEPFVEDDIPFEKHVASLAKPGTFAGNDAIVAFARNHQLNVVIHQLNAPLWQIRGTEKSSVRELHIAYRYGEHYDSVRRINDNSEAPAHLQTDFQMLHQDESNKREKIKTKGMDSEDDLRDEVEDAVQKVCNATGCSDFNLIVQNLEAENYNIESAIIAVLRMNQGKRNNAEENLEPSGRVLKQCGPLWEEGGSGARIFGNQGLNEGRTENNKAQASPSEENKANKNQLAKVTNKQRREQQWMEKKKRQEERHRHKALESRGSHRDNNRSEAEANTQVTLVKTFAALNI

| Compound | IC50 |
| --- | --- |
| O=C(Cn1c(=O)n(Cc2ccc(F)cc2)c(=O)c2ncccc21)Nc1ccccc1 | > 50 µM (inactive) |
| COc1c2n(c3ccccc13)[C@@]1(O)C(=O)N(C)C(=O)[C@@]1(O)c1c-2n(C)c2ccc(Cl)cc12 | > 50 µM (inactive) |
| Cc1ccc(S(=O)(=O)N2CCCCC2)cc1NC(=O)Cc1cccc(F)c1 | > 50 µM (inactive) |
| Cc1ccc(S(=O)(=O)N(C)C)cc1NC(=O)Cc1ccc(Cl)c(Cl)c1 | > 50 µM (inactive) |
| Cc1cc(NCC2CC2)n2nc(Nc3cc(Cl)ccc3C)nc2n1 | > 50 µM (inactive) |
| Cc1cc(C(=O)CN2CCN(Cc3ccc4c(c3)OCO4)CC2)c(C)n1-c1ccc2c(c1)OCO2 | > 50 µM (inactive) |
| Cc1ccc2c(c1)N(C)C(=O)c1cc(NC(=O)c3ccc(F)cc3)ccc1O2 | 22.5 µM |
| O=C(CCCn1c(=O)c2ccccc2n(CC(=O)NCc2ccccc2Cl)c1=O)NCc1ccc2c(c1)OCO2 | 3.31 µM |
| CCC(=O)Nc1ccc2c(c1)nc(CSc1nccc(C)n1)n2CC | > 50 µM (inactive) |
| Cc1ccc(NC(=O)c2c3c(nc4ccccc24)CCCCC3)c(C)c1 | > 50 µM (inactive) |
| O=C(CCc1nnc2n(Cc3ccc(F)cc3)c(=O)c3ccccc3n12)N1CCN(c2ccccn2)CC1 | > 50 µM (inactive) |
| O=C(COC(=O)c1ccc(Cl)cc1)Nc1ccc2[nH]c(=O)[nH]c2c1 | 12.7 µM |
| COCCn1c(=S)[nH]c2cc(C(=O)NCCSCc3ccccc3)ccc2c1=O | > 50 µM (inactive) |
| O=C(CSc1nc2ccncc2[nH]1)Nc1ccc(Br)cc1F | 49.8 µM |
| Cc1c(CC(=O)Nc2nn[nH]n2)c(=O)oc2cc3c(cc12)CCC1(CCCCC1)O3 | > 50 µM (inactive) |
| O=c1c2cc([N+](=O)[O-])ccc2nc(CN2CCN(c3ccccn3)CC2)n1-c1ccccc1F | > 50 µM (inactive) |
| COc1ccc(Cl)c(NC(=O)C2CC(=O)Nc3cc(-c4ccccc4)nn32)c1 (centres undefined) | 24.9 µM |
| CO/C1=C\C(C)=C/[C@@H](C)[C@@H](O)[C@@H](C)C/C(C)=C/C=C/[C@H](OC)[C@@H]([C@@H](C)[C@@H](O)[C@H](C)[C@@]2(O)C[C@@H](OC(=O)/C=C/C(N)=O)[C@H](C)[C@@H](C(C)C)O2)OC1=O | > 50 µM (inactive) |
| CSc1cccc(NC(=O)COc2cccc3ccccc23)c1 | 39.6 µM |
| Cc1cc(C(=O)N2CCN(C3CCN(Cc4ccc(Cl)o4)CC3)C(=O)C2)c(C)o1 | > 50 µM (inactive) |
| CCOCCCn1c(SCC(=O)Nc2ccccc2C(F)(F)F)nc2ccccc2c1=O | 19.4 µM |
| COc1cccc(NC(=O)Nc2ccc(CCc3nc4ccccc4[nH]3)cc2)c1 | 48.5 µM |

| Compound | IC50 |
| --- | --- |
| O=C(Nc1ccccc1)c1nc2c(s1)CCN(C(=O)c1ccccc1)CC2 | > 50 µM (inactive) |
| O=C(Nc1nc2c(ccc3ccccc32)s1)c1cccc(Br)c1 | 24.6 µM |
| c1cncc(-c2nc(Nc3ccc4c(c3)OCCO4)c3ccccc3n2)c1 | > 50 µM (inactive) |
| Cc1cc(C)c(NC(=O)Cn2c(=O)n(CCC(=O)NCc3ccc4c(c3)OCO4)c(=O)c3sccc32)c(C)c1 | 12.6 µM |
| COc1ccc(-c2nc(Cn3nnc(C(=O)Nc4ccc(C)cc4C)c3N)c(C)o2)cc1 | > 50 µM (inactive) |
| Cc1cccc(NC(=O)Cn2c(-c3cnccn3)nc(C)c(C)c2=O)c1C | > 50 µM (inactive) |
| CCOc1cc(N2CCOCC2)c(OCC)cc1NC(=O)c1cc(-c2ccncc2)nc2ccccc12 | > 50 µM (inactive) |
| O=C(c1cc2ccccc2o1)N1CC=C(c2ccccc2)CC1 | > 50 µM (inactive) |
| O=c1ccc(-c2noc(Cc3c(F)cccc3Cl)n2)c[nH]1 | > 50 µM (inactive) |
| COC1C(O)=C2C(=O)O/C(C)=C/C=C/C=C/C=C/CC(c3ccccc3)NC(=O)/C=C/C=C/C=C\C=C\C2(C)C1O (centres undefined) | > 50 µM (inactive) |
| CC1OC1C(=O)[C@]1(O)[C@H](C)[C@@H](O)[C@@]23O[C@@]2([C@H](O)c2c(O)cccc2C3=O)[C@H]1O (some centres undefined) | > 50 µM (inactive) |
| Cn1nc(-c2nc(-c3ccccc3)no2)c2c1CCN(C(=O)C1CCCC1)C2 | > 50 µM (inactive) |
| Cc1c(CC(=O)N2CCN(c3ncccn3)CC2)c(=O)oc2cc(O)ccc12 | 34.1 µM |
| O=C(Nc1ccc2c(c1)OCO2)c1[nH]nc2c1CCc1ccccc1-2 | > 50 µM (inactive) |
| Cc1cnnn1-c1ccc(C(=O)Nc2cc(Cl)ccc2Cl)cc1 | > 50 µM (inactive) |
| COc1ccc(COc2ccc3c(C)c(CC(=O)N4CC[C@@]5(O)CCCC[C@H]5C4)c(=O)oc3c2)cc1 | 4.62 µM |
| Cc1ccc(Nc2nc(C(=O)NCc3ccc4c(c3)OCO4)cc3occc23)cc1Cl | > 50 µM (inactive) |
| Cc1ccc(-n2nc(C(=O)Nc3ccc(C)cn3)c3ncn(C)c(=O)c32)cc1 | 2.1 µM |
| Cc1ccc(CNC(=O)Cn2cnc3c(cnn3-c3cccc(Cl)c3)c2=O)cc1 | > 50 µM (inactive) |
| Cc1cccc(-n2cnc(C(=O)NCc3ccc(F)cc3)c2)n1 | > 50 µM (inactive) |
| CCOC(=O)c1ccc(S(=O)(=O)N2CCC(C(=O)OC(C)C(=O)Nc3cccc([N+](=O)[O-])c3)CC2)cc1 (centres undefined) | 17.3 µM |
| c1csc(CCN2CCc3nc4cccnc4cc3C2)c1 | > 50 µM (inactive) |

| Compound | IC50 |
| --- | --- |
| Cc1cc(Cl)ccc1NC(=O)c1cc(-c2cccnc2)n[nH]1 | > 50 µM (inactive) |
| O=c1c2cnc(N3CCOCC3)nc2ccn1CCc1ccccc1 | 28 µM |
| COc1ccc(-n2ccc(=O)c(-c3nc(-c4ccccc4F)no3)n2)cc1OC | > 50 µM (inactive) |
| Cc1ccc2nc(CCc3ccc(NS(=O)(=O)c4cccc(Cl)c4C)cc3)[nH]c2c1 | > 50 µM (inactive) |
| COc1ccc(NC(=O)c2nnc(C(=O)NCCN3CCCCCC3)s2)cc1 | 38.8 µM |
| O=C(CCc1nnc2n(Cc3ccccc3Cl)c(=O)c3ccccc3n12)NCc1ccccn1 | > 50 µM (inactive) |
| O=C(COc1ncnc2ccccc12)Nc1ccc2c(c1)OC1(CCCC1)O2 | 46.2 µM |
| O=C1N[C@@H](Cc2ccccc2)C(=O)N2[C@H]3Nc4ccccc4[C@@]3([C@]34C[C@H]5C(=O)N[C@@H](Cc6ccccc6)C(=O)N5[C@H]3Nc3ccccc34)C[C@@H]12 | 47.6 µM |
| COc1cc2c(cc1OC)C(COc1ccccc1OC)N(C(=O)c1ccc3ccccc3c1)CC2 (centres undefined) | > 50 µM (inactive) |
| COc1ccc(NC(=O)c2cc(-c3cccnc3)n[nH]2)cc1Cl | 17.8 µM |
| CCOc1ccc(CCNC(=O)c2ccc3c(c2)N(CC)C(=O)c2ccccc2S3)cc1OCC | > 50 µM (inactive) |
| Cc1noc(-c2cc(=O)n(CC(=O)NCc3ccccc3)c3ccccc23)n1 | > 50 µM (inactive) |
| O=C(COc1ccc2c(c1)CCC2)Nc1ccc2c(c1)CCC2 | > 50 µM (inactive) |
| COc1ccc(/C=C\c2nccc3c2[nH]c2ccccc23)cc1 | > 50 µM (inactive) |
| COc1ccc2nc(-c3ccc(NC(=O)c4cccc(OC)c4OC)cc3)cn2n1 | > 50 µM (inactive) |
| COCCCNC(=O)Cn1c(=O)n(Cc2ccc(C(=O)NCc3ccccc3OC)cc2)c(=O)c2ccccc21 | > 50 µM (inactive) |
| O=C(NC1CCCCC1)c1cc2c(cn1)[nH]c1ccccc12 | > 50 µM (inactive) |
| Fc1ccc(Nc2nc(Nc3cccc(F)c3)nc3nccnc23)cc1 | > 50 µM (inactive) |
| COc1ccc(/C=C/C(=O)Nc2c3c(nc4c2CCC4)CCCC3)cc1 | 23.6 µM |
| CC[C@H](C)[C@H](NC(=O)[C@H]([C@@H](C)CC)N(C)C(C)=O)C(=O)N[C@H](C(=O)N[C@@H](CC(C)C)C(=O)C1(C)CO1)[C@@H](C)O (some centres undefined) | > 50 µM (inactive) |
